PMC6858373 (Scientific Reports, 2019)
Like-named read-outs stand apart in the source and are kept apart here.

Key:
[1] = biological target: full-length P. pyralis luciferase (Photinus pyralis, UniProt P08659, K549A/L550V/N119G/N50D/S548I); format: cell-based
[2] = biological target: T1, FGF14:Nav1.6 C-tail complex (Homo sapiens, UniProt Q92915+Q9UQD0); experiment: Split-luciferase complementation assay (LCA) in Clone V double stable HEK293 cells; format: cell-based; settings: for Split Luciferase Assay Z-score Set 1 / Split Luciferase Assay Z-score Set 2: normalized to on-plate 0.3% DMSO controls
T1 construct: polymerase chain reaction (PCR) amplification of the FGF14 open reading frame (nt 1–855); C-terminal fragment of Nav1.6 (amino acids 1763–1976) fused with CD4ΔC-tail (amino acids 1–395); expressed in transfected cells
T1 sequence (Q92915 1-252 isoform Q92915-2): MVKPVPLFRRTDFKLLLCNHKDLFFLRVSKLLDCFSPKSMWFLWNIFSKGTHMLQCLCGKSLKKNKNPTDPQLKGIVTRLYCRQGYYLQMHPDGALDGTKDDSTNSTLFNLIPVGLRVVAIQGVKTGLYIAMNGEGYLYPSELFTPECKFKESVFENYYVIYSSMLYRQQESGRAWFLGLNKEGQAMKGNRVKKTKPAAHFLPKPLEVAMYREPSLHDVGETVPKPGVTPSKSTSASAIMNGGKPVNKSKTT
T1 sequence (Q9UQD0 1763-1976 limits assumed): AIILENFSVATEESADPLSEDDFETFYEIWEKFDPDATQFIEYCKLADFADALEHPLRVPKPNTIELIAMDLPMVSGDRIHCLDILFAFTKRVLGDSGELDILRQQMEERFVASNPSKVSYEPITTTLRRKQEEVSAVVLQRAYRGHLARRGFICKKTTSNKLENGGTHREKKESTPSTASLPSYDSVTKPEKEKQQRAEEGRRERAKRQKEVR

[3] = CC_NCI screening, full-length luciferase counter-screen luminescence, normalized to on-plate 0.3% DMSO controls
[4] = CC_NCI screening, full-length luciferase counter-screen, normalized to on-plate 0.3% DMSO controls
[5] = CC_NCI screening, LCA luminescence, biological replicate Set 1, normalized to on-plate 0.3% DMSO controls (n=16 per plate)
[6] = CC_NCI screening, LCA luminescence, biological replicate Set 2, normalized to on-plate 0.3% DMSO controls (n=16 per plate)
[7] = CC_NCI screening, LCA, biological replicate Set 1
[8] = CC_NCI screening, LCA, biological replicate Set 2
[9] = CC_NCI screening, average of Set 1 and Set 2, normalized to 0.3% DMSO controls
[10] = CC_NCI screening, normalized to on-plate 0.3% DMSO controls
[11] = CC_NCI screening, biological replicate Set 1
[12] = CC_NCI screening, biological replicate Set 1, normalized to on-plate 0.3% DMSO controls (n=16 per plate)
[13] = CC_NCI screening, biological replicate Set 2
[14] = CC_NCI screening, biological replicate Set 2, normalized to on-plate 0.3% DMSO controls (n=16 per plate)
[15] = average of Set 1 and Set 2, normalized to 0.3% DMSO controls

Sequence of full-length P. pyralis luciferase (P08659 whole entry N50D/N119G/S548I/K549A/L550V, looked up): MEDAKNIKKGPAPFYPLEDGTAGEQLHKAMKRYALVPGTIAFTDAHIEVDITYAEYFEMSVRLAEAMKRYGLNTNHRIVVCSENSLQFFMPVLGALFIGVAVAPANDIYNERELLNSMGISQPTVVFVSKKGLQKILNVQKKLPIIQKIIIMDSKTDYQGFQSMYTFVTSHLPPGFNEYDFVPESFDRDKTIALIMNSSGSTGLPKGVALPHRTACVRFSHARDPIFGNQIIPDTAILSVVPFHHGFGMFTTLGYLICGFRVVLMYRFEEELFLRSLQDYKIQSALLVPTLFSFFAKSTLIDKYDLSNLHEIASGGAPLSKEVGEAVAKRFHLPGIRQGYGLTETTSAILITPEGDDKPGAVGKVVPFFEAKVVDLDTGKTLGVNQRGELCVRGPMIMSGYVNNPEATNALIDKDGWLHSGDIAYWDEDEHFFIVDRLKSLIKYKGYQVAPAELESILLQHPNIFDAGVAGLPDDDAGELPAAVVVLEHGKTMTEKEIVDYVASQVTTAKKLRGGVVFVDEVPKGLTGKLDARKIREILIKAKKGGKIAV

Compound	Luciferase Assay % Lum [1, 3] [%]	Luciferase Assay Z-score [1, 4]	Split Luciferase Assay % Lum Set 1 [2, 5] [%]	Split Luciferase Assay %Lum Set 2 [2, 6] [%]	Split Luciferase Assay Z-score Set 1 [2, 7]	Split Luciferase Assay Z-score Set 2 [2, 8]	Split Luciferase Assay %Lum Avg [2, 9] [%]	Toxicity Assay % Fluor (Clone V cells; human, 16 h, 30 µM) [%]	Toxicity Assay Z-score (Clone V cells; human, 16 h, 30 µM)	also measured
COc1cc2c(Oc3ccc4[nH]c(C)cc4c3F)ncnc2cc1OCCCN1CCCC1 [CEDIRANIB]	80.88	-2.45	69.90	57.22	-2.43	-3.48	63.56	86.10	-1.94	–
COC1=C2C[C@@H](C)C[C@H](OC)[C@H](O)[C@@H](C)/C=C(\C)[C@H](OC(N)=O)[C@@H](OC)/C=C\C=C(/C)C(=O)NC(=CC1=O)C2=O [GELDENAMYCIN]	102.35	0.30	70.99	86.35	-2.34	-1.11	78.67	–	–	Toxicity Assay % Fluor (Clone V cells): 94.70%; Toxicity Assay Z-score (Clone V cells): -0.74
Cc1cc(C(C)Nc2ccccc2)c2nc(N3CCOCC3)cc(=O)n2c1 (centres unmarked) [TGX 221]	–	–	–	–	–	–	–	–	–	Luciferase Assay % Lum (full-length luciferase counter-screen) [1, 10]: 101.89%; Luciferase Assay Z-score (full-length luciferase counter-screen) [1, 10]: 0.24; Split Luciferase Assay Z-score Set 1 [2, 11]: 0.82; Split Luciferase Assay % Lum Set 1 [2, 12]: 110.12%; Split Luciferase Assay Z-score Set 2 [2, 13]: 1.94; Split Luciferase Assay %Lum Set 2 [2, 14]: 123.80%; Split Luciferase Assay %Lum Avg [2, 15]: 116.96%; Toxicity Assay Z-score (CTB cell viability) (Clone V cells): 2.19
OC[C@H]1O[C@@H](n2cnc3c2NC=NC[C@H]3O)C[C@@H]1O [Pentostatin]	–	–	–	–	2.75	3.80	–	86.56	-1.88	Luciferase Assay % Lum [1]: 97.96%; Luciferase Assay Z-score [1]: -0.26; Split Luciferase Assay % Lum Set 1 [2]: 134.04%; Split Luciferase Assay %Lum Avg [2]: 140.36%; Split Luciferase Assay %Lum Set 2 [2]: 146.68%
COc1ccc(Cl)cc1[C@]1(F)C(=O)Nc2cc(C(F)(F)F)ccc21 [BMS 204352]	36.55	-8.12	10.11	17.69	-7.26	-6.70	13.90	103.30	0.46	–
CN(C)Cc1c(C(=O)NCCOc2ccc(C(=O)NO)cc2)oc2ccccc12 [PCI-24781]	91.15	-1.13	118.82	98.83	1.52	-0.10	108.83	93.46	-0.91	–
O=C1NC(=O)/C(=C/c2ccc3c(c2)OCO3)S1 [AS-041164]	–	–	–	–	–	–	–	–	–	Luciferase Assay % Lum (full-length luciferase counter-screen) [1, 10]: 84.77%; Luciferase Assay Z-score (full-length luciferase counter-screen) [1, 10]: -1.95; Split Luciferase Assay Z-score Set 1 [2, 11]: -1.38; Split Luciferase Assay % Lum Set 1 [2, 12]: 82.95%; Split Luciferase Assay Z-score Set 2 [2, 13]: 0.50; Split Luciferase Assay %Lum Set 2 [2, 14]: 106.11%; Split Luciferase Assay %Lum Avg [2, 15]: 94.53%; Toxicity Assay % Fluor (CTB cell viability fluorescence) (Clone V cells): 113.38%; Toxicity Assay Z-score (CTB cell viability) (Clone V cells): 1.87
O=S(=O)(NCCNC/C=C/c1ccc(Br)cc1)c1cccc2cnccc12 [H-89, reference compound]	80.98	-2.44	14.46	17.69	-6.91	-6.70	16.07	–	–	Z-score (LCA primary screening) ([2]; 30 µM, 384-well, average of primary screening (n = 2), vs on-plate 0.3% DMSO): −6.81; dose-response behavior of repurchased compounds ([2]; 10-point dose response 0.25-50 µM, Clone V cells): purely inhibitory effects; IMin (% Luminescence) ([2]; antagonists, Clone V cells, 384-well, normalized to DMSO): 16.07 % Luminescence; action toward the FGF14:Nav1.6 C-tail interaction ([2]; dose-dependency validation using fresh compound samples): acted as antagonists; IC50 ([2]; estimated, 8-point dose response 0.25-30 µM, n = 4 per concentration, library compounds, read-out: IC50): 12.2 µM; IC50 ([2]; repurchased compounds, 10-point dose response 0.25-50 µM, n = 8 per concentration, Clone V cells, 384-well, read-out: in-cell IC50): 1.9 µM; Toxicity Assay % Fluor (Clone V cells): 91.80%; Toxicity Assay Z-score (Clone V cells): -1.15
Cc1ccc(-c2cc(C(F)(F)F)nn2-c2ccc(S(N)(=O)=O)cc2)cc1 [Celecoxib]	60.07	-5.11	43.81	44.73	-4.54	-4.50	44.27	88.16	-1.66	–
Nc1nc(Cl)nc2c1ncn2[C@@H]1O[C@H](CO)[C@@H](O)[C@@H]1F [Clofarabine]	–	–	146.00	131.08	3.72	2.53	138.54	94.15	-0.82	Luciferase Assay % Lum [1]: 100.89%; Luciferase Assay Z-score [1]: 0.11
Bleomycin sulfate	94.27	-0.73	125.34	143.56	2.05	3.54	134.45	–	–	Toxicity Assay % Fluor (Clone V cells): 80.17%; Toxicity Assay Z-score (Clone V cells): -2.77
COc1cc2c(cc1OC)[C@@H]1C(=O)c3ccc4c(c3O[C@@H]1CO2)C=CC(C)(C)O4 [DEGUELIN]	66.30	-4.32	27.50	26.01	-5.86	-6.02	26.76	–	–	Toxicity Assay % Fluor (Clone V cells; human): 100.58%; Toxicity Assay Z-score (Clone V cells; human): 0.08
